Patent US9359341B2, “Aldehyde derivative of substitute oxazolidinones” (WANBURY LTD., priority 2012, dated 2016)
Read-outs that look alike come from different tables or passages of the source.

Assays:
plasma protein [1] = assay: Plasma protein binding (human); assay type: in vitro ADME
Procedure: (§1) A compound solution (1 mM in DMSO) (5 μL), according to the invention is added to the respective plasma matrices of rat or human or mouse (1 ml).
(§2) Add 150 ul of phosphate buffer to receiving side of the dialysis well. […] Precipitate with Acetonitrile and dilute samples prior to analysis in 1.5 ml polypropylene tubes. Remove 50 μl from the sample side of dialysis well and add 50 μl of phosphate buffer +300 μl of acetonitrile containing IS. Remove 50 μl from the buffer side of the dialysis well and add 50 μl of respective matrix plasma +300 μl of ACN. Then vortexed and centrifuged for 5 min, and supernatant is taken and injected into LCMS.
(§3) Different test concentration ranging from 0.1 μM to 20 μM are made in methanol:water (90:10). Test solutions are added to the premixed matrix containing plasma:phosphate buffer (50:50). Precipitate with 300 μl of ice cold acetonitrile containing IS, vortexes and centrifuged. Supernatant is taken and injected into LCMS. Percentage of plasma protein binding was obtained via Equation(2):% Fraction unbound=(concentration on the buffer side/concentration on the sample side)*100 Table-7

CYP isoforms = assay: CYP inhibition assay, all isoforms (overall interpretation); assay type: in vitro ADME, human; settings: with other drug when administered
Procedure: (§4) The ability of substances to inhibit CYP1A2, CYP2C9, CYP2D6, CYP2C19, CYP2J2 and CYP3A4 in humans was investigated with pooled human liver microsomes as enzyme source in the presence of standard substrates (see below) which form CYP-isoform-specific metabolites.
(§5) Standard incubation mixtures comprise NADPH and substrates in 100 mM phosphate buffer (pH 7.4) in a total volume of 200 μl. Test compound are dissolved in acetonitrile. Incubated with pooled human liver microsomes at 37° C. for a defined time. The reactions are stopped by adding 100 μl of acetonitrile in which a suitable internal standard is always present. Precipitated proteins are removed by centrifugation, and the supernatants analyzed by LC-MS/MS. The data represents the extrapolated IC50 (μM) concentration derived from 3 μM.
(§6) This is an essential parameter to gauge drug-drug interactions.

[2] = system: CYP1A2, CYP2C9, CYP2D6, CYP2C19, CYP2J2 and CYP3A4; assay: as above; assay type: in vitro ADME, human; settings: human, pooled human liver microsomes, pH 7.4; all assayed isoforms; minimal inhibition; read-out: inhibition of the CYP isoforms that were assayed
Procedure: as §4, §5, §6

caco2 system = assay: Permeability in caco2 system; assay type: in vitro ADME; settings: caco2 system
[3] = Permeability in caco2 system; assay type: in vitro ADME; settings: human, Caco-2, caco2 system
CYP2C9 = CYP2C9 (Homo sapiens (Human), UniProt P11712); assay: CYP inhibition assay; assay type: in vitro ADME; settings: pooled human liver microsomes; extrapolated IC50 derived from 3 μM; read-out: IC50 (μM) of CYP isoforms, 2C9
Procedure: as §4, §5

CYP2D6 = CYP2D6 (Homo sapiens (Human), UniProt P10635); assay: CYP inhibition assay; assay type: in vitro ADME; settings: pooled human liver microsomes; extrapolated IC50 derived from 3 μM; read-out: IC50 (μM) of CYP isoforms, 2D6
Procedure: as §4, §5

CYP2C19 = CYP2C19 (Homo sapiens (Human), UniProt P33261); assay: CYP inhibition assay; assay type: in vitro ADME; settings: pooled human liver microsomes; extrapolated IC50 derived from 3 μM; read-out: IC50 (μM) of CYP isoforms, 2C19
Procedure: as §4, §5

CYP2J2 = CYP2J2 (Homo sapiens (Human), UniProt P51589); assay: CYP inhibition assay; assay type: in vitro ADME; settings: pooled human liver microsomes; extrapolated IC50 derived from 3 μM; read-out: IC50 (μM) of CYP isoforms, 2J2
Procedure: as §4, §5

plasma protein [4] = assay: Plasma protein binding (mouse); assay type: in vitro ADME
Procedure: as §1, §2, §3

[5] = Stability in buffer at various pH; assay type: physicochemical; settings: for Analyte Peak Area, Average: Standard average 39849828
Procedure: On completion of incubation period, the solution is centrifuged and supernatant is taken. To the supernatant, ice cold acetonitrile containing IS is added, vortexed and injected into LCMS/MS.
API 4000, ESI Agilent 1100 column: Gemini Nx 100 mm×4.6 mm 5.μ; column temperature: 30° C.; eluent A: 0.1% formic acid in water, eluent B: acetonitrile; gradient: 0-2.5 min 95% A, 5% B; 2.5-2.6 min 5% A, 95% B; 2.6-4.2 min 95% A, 5% B; flow rate: 0.8 ml/min; ESI. Q1:464.098, Q3:144.255
Prepared 0.1 mol of citric acid and 0.2 mol of di sodium hydrogen phosphate in water. Buffer pH 2.2, 4 and 7.8 are prepared using citric acid and disodium hydrogen phosphate by adjusting the pH with 0.1N HCl or 1N NaOHpH 7.4: 8.89 g disodium hydrogen phosphate (Solution A) add to 1 liter of water, 1.5601 g sodium di-hydrogen phosphate (solution B) are made up to 1 liter with water; Solution A (19 ml) and Solution B (81 ml) are mixed. SIF/SGF: 2.38 g of SIF original powder (biorelavant media) is dissolved in 1 L of milliQ water. The pH of the solution is adjusted for SIF (7.4) and SGF (2.2) with 0.1N HCl. The ratios of the peak areas (F) at the respective time points in relation to the peak areas at the starting time are calculated

[6] = In vitro liver microsomal stability assay (human); assay type: in vitro ADME; settings: human liver microsomes
Procedure: Liver microsomal stability assays are conducted at 1 mg per mL liver microsome protein with an NADPH in phosphate buffer (100 mM, pH 7.4). Test compounds (compound of formula B of the invention) are prepared as solutions in 20% methanol-water and added to the assay mixture (final assay concentration 1 μM) and incubated at 37° C. Aliquots (100.μ·L) are taken out at times 0, 15, and 30 minutes, and diluted with ice cold acetonitrile containing IS (200.mu·L) to stop the reactions. Samples are centrifuged at 10,000 RPM for 5 minutes to precipitate proteins. Supernatants are transferred to micro centrifuge tubes and stored at −20° C. for analysis of LC/MS/MS. The percent parent remaining of the test substance is calculated as Ratio of peak area at each time point to peak area ratio at zero min, multiplied by 100. The compound formula (B) is converted to Rivaroxaban in microsomal assay.

CYP2J2, sequence (P51589 whole entry, canonical isoform): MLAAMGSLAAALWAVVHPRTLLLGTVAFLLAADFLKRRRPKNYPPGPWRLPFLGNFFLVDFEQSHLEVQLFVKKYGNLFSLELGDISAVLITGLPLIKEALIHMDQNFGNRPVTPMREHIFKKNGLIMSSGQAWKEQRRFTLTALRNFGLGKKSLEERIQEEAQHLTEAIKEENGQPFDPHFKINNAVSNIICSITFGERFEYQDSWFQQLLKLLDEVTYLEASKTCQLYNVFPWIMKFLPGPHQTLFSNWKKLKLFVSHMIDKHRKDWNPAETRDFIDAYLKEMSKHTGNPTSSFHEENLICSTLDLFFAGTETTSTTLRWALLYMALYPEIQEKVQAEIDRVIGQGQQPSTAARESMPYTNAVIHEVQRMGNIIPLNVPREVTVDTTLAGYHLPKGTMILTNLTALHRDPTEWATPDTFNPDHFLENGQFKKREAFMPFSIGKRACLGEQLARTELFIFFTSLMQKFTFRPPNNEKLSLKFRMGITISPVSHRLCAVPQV
CYP2C19, sequence (P33261 whole entry, canonical isoform): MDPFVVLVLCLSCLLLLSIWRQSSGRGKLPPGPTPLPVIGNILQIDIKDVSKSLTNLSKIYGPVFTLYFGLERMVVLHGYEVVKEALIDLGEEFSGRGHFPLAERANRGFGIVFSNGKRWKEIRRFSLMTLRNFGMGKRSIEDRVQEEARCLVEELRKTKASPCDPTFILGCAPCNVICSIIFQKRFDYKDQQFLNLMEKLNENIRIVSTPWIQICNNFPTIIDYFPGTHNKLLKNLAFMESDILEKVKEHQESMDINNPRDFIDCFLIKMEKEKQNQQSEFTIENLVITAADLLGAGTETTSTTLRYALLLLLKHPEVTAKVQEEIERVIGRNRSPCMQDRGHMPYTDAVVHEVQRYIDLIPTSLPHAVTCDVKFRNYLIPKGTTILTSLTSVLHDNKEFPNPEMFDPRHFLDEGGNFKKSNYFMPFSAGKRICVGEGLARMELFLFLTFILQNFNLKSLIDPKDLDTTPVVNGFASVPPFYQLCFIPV
CYP2D6, sequence (P10635 whole entry, canonical isoform): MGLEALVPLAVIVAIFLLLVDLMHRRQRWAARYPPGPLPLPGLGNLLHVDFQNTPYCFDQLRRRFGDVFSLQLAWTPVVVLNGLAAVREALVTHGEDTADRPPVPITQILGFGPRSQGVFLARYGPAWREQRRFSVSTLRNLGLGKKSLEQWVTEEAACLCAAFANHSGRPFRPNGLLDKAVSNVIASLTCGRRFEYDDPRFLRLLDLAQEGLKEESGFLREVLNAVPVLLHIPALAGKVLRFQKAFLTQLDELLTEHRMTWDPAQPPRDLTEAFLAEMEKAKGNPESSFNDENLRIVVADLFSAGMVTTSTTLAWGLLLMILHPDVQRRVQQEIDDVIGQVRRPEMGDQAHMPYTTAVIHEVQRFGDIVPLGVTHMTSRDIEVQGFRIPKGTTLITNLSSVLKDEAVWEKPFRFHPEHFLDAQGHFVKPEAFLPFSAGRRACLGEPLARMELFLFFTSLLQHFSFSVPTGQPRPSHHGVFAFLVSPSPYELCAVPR
CYP2C9, sequence (P11712 whole entry, canonical isoform): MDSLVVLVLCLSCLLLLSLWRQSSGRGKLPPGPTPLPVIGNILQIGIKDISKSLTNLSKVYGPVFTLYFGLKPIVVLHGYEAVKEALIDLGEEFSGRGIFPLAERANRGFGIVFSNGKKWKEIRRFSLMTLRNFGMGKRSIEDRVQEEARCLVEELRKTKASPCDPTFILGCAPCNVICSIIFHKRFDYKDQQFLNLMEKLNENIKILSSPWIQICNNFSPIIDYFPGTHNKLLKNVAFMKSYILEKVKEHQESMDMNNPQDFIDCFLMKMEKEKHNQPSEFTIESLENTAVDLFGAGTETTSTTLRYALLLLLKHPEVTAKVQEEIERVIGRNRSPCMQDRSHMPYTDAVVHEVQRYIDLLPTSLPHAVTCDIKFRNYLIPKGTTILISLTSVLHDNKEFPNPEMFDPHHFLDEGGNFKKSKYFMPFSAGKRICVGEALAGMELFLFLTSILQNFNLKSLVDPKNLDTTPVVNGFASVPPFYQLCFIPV

SMILES: O=CN(C[C@H]1CN(c2ccc(N3CCOCC3=O)cc2)C(=O)O1)C(=O)c1ccc(Cl)s1 [Compound formula B, 5-chloro-N-formyl-N-({(5S)-2-oxo-3-[4-(3-oxomorpholin-4-yl)phenyl]-1,3-oxazolidin-5-yl}methyl)thiophene-2-carboxamide]
- Observation: amount of test product (plasma protein [1]): Not quantificable amount
- Observation: formed Rivaroxaban bound to plasma protein (plasma protein [1]): found to be High bound to
- Interpretation of CYP inhibition studies (CYP isoforms): Low drug-drug interaction (compound formula-B
- IC50 [2]: > 1 µM
- Interpretation: Pgp substrate (efflux of >2) (caco2 system): observed to be a Pgp substrate.
- Papp ([3]; read-out: Interpretation: permeability, classification based on Papp): > 20 ×10⁻⁶ cm/s
- Papp ([3]; read-out: Papp A > B): 17.4 ×10⁻⁶ cm/s
- Papp ([3]; read-out: Papp B > A): 40.3 ×10⁻⁶ cm/s
- IC50 (CYP2C9): 22.4 µM
- IC50 (CYP2D6): 8.2 µM
- IC50 (CYP2C19): 25.3 µM
- IC50 (CYP2J2): 6.7 µM
- Observation: amount of test product (plasma protein [4]): Not quantificable amount
- Observation: formed Rivaroxaban bound to plasma protein (plasma protein [4]): found to be moderate-High
- Analyte Peak Area, Average ([5]; buffer pH 2.1, 24 hr room temperature): 28315038 counts
- Analyte Peak Area, Average ([5]; buffer pH 4, 24 hr room temperature): 34879190 counts
- Analyte Peak Area, Average ([5]; buffer pH 7.8, 24 hr room temperature): 38907.5 counts
- stability in varying pH buffer conditions ([5]; rivaroxaban formation observed by LCMS): degraded in varying pH buffer conditions
- Observation (metabolism; for Test Product: of the formed rivaroxaban) [6]: stable in human
- amount of test product detected ([6]; metabolised to rivaroxaban from zero min): Neglible amount
